Source: ChEMBL document CHEMBL1201862, “PubChem BioAssay data set” (2004)
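Cultured in 96-well plates, cells were exposed to test compound for 48 hours across five concentrations. Here, GI50 denotes the concentration required for 50% inhibition of growth.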 Calls of active or inactive are those of the source. Rule as the data show it: active = GI50 up to about 1.1 µM and inactive = higher.

What was measured:
Assay in all cases: growth of human tumour cells (NCI), 48 h
786-0 = system: 786-0
A549 = system: A549
ACHN = system: ACHN
BT-549 = system: BT-549
CAKI-1 = system: CAKI-1
CCRF-CEM = system: CCRF-CEM
COLO 205 = system: COLO 205
DU-145 = system: DU-145
EKVX = system: EKVX
HCC 2998 = system: HCC 2998
HCT-116 = system: HCT-116
HCT-15 = system: HCT-15
HOP-62 = system: HOP-62
HT-29 = system: HT-29
Hs-578T = system: Hs-578T
IGROV-1 = system: IGROV-1
K562 = system: K562
KM12 = system: KM12
M14 = system: M14
MCF7 = system: MCF7
MDA-MB-231 = system: MDA-MB-231
MDA-MB-435 = system: MDA-MB-435
MDA-N = system: MDA-N
MOLT-4 = system: MOLT-4
Malme-3M = system: Malme-3M
NCI-H226 = system: NCI-H226
NCI-H23 = system: NCI-H23
NCI-H460 = system: NCI-H460
NCI/ADR-RES = system: NCI/ADR-RES
OVCAR-3 = system: OVCAR-3
OVCAR-4 = system: OVCAR-4
OVCAR-5 = system: OVCAR-5
OVCAR-8 = system: OVCAR-8
PC-3 = system: PC-3
RPMI-8226 = system: RPMI-8226
RXF 393 = system: RXF 393
SF-268 = system: SF-268
SF-295 = system: SF-295
SK-MEL-28 = system: SK-MEL-28
SK-MEL-2 = system: SK-MEL-2
SK-MEL-5 = system: SK-MEL-5
SK-OV-3 = system: SK-OV-3
SN12C = system: SN12C
SNB-19 = system: SNB-19
SNB-75 = system: SNB-75
SW-620 = system: SW-620
T47D = system: T47D
TK-10 = system: TK-10
U-251 = system: U-251
UACC-257 = system: UACC-257
UACC-62 = system: UACC-62
UO-31 = system: UO-31
A498 = system: A498
HL-60 = system: HL-60
HOP-92 = system: HOP-92
LOX IMVI = system: LOX IMVI
NCI-H522 = system: NCI-H522
SF-539 = system: SF-539

NC(=O)C1N=NSC1NC(=O)c1ccc([N+](=O)[O-])cc1 (stereo not given)
GI50 (786-0): > 100 µM (inactive)
GI50 (A549): 27 µM (inactive)
GI50 (ACHN): 59.4 µM (inactive)
GI50 (BT-549): 48.2 µM (inactive)
GI50 (CAKI-1): 63.5 µM (inactive)
GI50 (CCRF-CEM): 43.5 µM (inactive)
GI50 (COLO 205): 44.5 µM (inactive)
GI50 (DU-145): 78.5 µM (inactive)
GI50 (EKVX): 30 µM (inactive)
GI50 (HCC 2998): 37.6 µM (inactive)
GI50 (HCT-116): 47.5 µM (inactive)
GI50 (HCT-15): 53.8 µM
GI50 (HOP-62): > 100 µM (inactive)
GI50 (HT-29): 36.9 µM (inactive)
GI50 (Hs-578T): 75 µM (inactive)
GI50 (IGROV-1): 22.4 µM (inactive)
GI50 (K562): 62.7 µM (inactive)
GI50 (KM12): 49.9 µM (inactive)
GI50 (M14): 56.4 µM (inactive)
GI50 (MCF7): 43.5 µM (inactive)
GI50 (MDA-MB-231): 52.2 µM (inactive)
GI50 (MDA-MB-435): 46.5 µM (inactive)
GI50 (MDA-N): 67.3 µM (inactive)
GI50 (MOLT-4): 49.2 µM (inactive)
GI50 (Malme-3M): 60.3 µM (inactive)
GI50 (NCI-H226): 54.8 µM (inactive)
GI50 (NCI-H23): 38.7 µM (inactive)
GI50 (NCI-H460): 34.4 µM (inactive)
GI50 (NCI/ADR-RES): 36.6 µM (inactive)
GI50 (OVCAR-3): 30.4 µM (inactive)
GI50 (OVCAR-4): 43.3 µM (inactive)
GI50 (OVCAR-5): > 100 µM (inactive)
GI50 (OVCAR-8): 53.6 µM (inactive)
GI50 (PC-3): 26.6 µM (inactive)
GI50 (RPMI-8226): 26.4 µM (inactive)
GI50 (RXF 393): 43.5 µM (inactive)
GI50 (SF-268): 54.7 µM (inactive)
GI50 (SF-295): 32.2 µM (inactive)
GI50 (SK-MEL-28): > 100 µM (inactive)
GI50 (SK-MEL-2): 13.5 µM (inactive)
GI50 (SK-MEL-5): 22 µM (inactive)
GI50 (SK-OV-3): 58.9 µM (inactive)
GI50 (SN12C): 47.5 µM (inactive)
GI50 (SNB-19): 50.6 µM (inactive)
GI50 (SNB-75): 67.3 µM (inactive)
GI50 (SW-620): 50.6 µM (inactive)
GI50 (T47D): 26.3 µM (inactive)
GI50 (TK-10): 54.8 µM (inactive)
GI50 (U-251): 36.6 µM (inactive)
GI50 (UACC-257): > 100 µM (inactive)
GI50 (UACC-62): 49.4 µM (inactive)
GI50 (UO-31): 40.6 µM (inactive)

O=C(c1ccco1)N(C(=S)OCCOc1ccccc1)c1ccccc1
GI50 (786-0): 19.7 µM (inactive)
GI50 (A498): 16 µM (inactive)
GI50 (A549): 30.8 µM (inactive)
GI50 (ACHN): 23 µM (inactive)
GI50 (BT-549): 23 µM (inactive)
GI50 (CAKI-1): 18.7 µM (inactive)
GI50 (CCRF-CEM): 20.1 µM (inactive)
GI50 (COLO 205): 21 µM (inactive)
GI50 (DU-145): 20.3 µM (inactive)
GI50 (EKVX): 22.1 µM (inactive)
GI50 (HCC 2998): 21 µM (inactive)
GI50 (HCT-116): 17.3 µM (inactive)
GI50 (HCT-15): 22.3 µM
GI50 (HL-60): 24.3 µM (inactive)
GI50 (HOP-62): 16.2 µM (inactive)
GI50 (HOP-92): 14.8 µM (inactive)
GI50 (HT-29): 19.2 µM (inactive)
GI50 (Hs-578T): 32.1 µM (inactive)
GI50 (IGROV-1): 17.7 µM (inactive)
GI50 (K562): 28.4 µM (inactive)
GI50 (KM12): 19.5 µM (inactive)
GI50 (LOX IMVI): 19.3 µM (inactive)
GI50 (M14): 19.5 µM (inactive)
GI50 (MCF7): 20.7 µM (inactive)
GI50 (MDA-MB-231): 16.4 µM (inactive)
GI50 (MDA-MB-435): 16.2 µM (inactive)
GI50 (MDA-N): 18.9 µM (inactive)
GI50 (MOLT-4): 23.8 µM (inactive)
GI50 (Malme-3M): 19.9 µM (inactive)
GI50 (NCI-H23): 21.3 µM (inactive)
GI50 (NCI-H460): 21.9 µM (inactive)
GI50 (NCI-H522): 17.1 µM (inactive)
GI50 (NCI/ADR-RES): 25.7 µM (inactive)
GI50 (OVCAR-3): 16.5 µM (inactive)
GI50 (OVCAR-4): 20 µM (inactive)
GI50 (OVCAR-5): 19.2 µM (inactive)
GI50 (OVCAR-8): 19.8 µM (inactive)
GI50 (PC-3): 24.1 µM (inactive)
GI50 (RPMI-8226): 19.8 µM (inactive)
GI50 (RXF 393): 13.8 µM (inactive)
GI50 (SF-268): 18 µM (inactive)
GI50 (SF-295): 16.2 µM (inactive)
GI50 (SF-539): 22.9 µM (inactive)
GI50 (SK-MEL-28): 18.2 µM (inactive)
GI50 (SK-MEL-2): 19.6 µM (inactive)
GI50 (SK-OV-3): 21.8 µM (inactive)
GI50 (SN12C): 19.5 µM (inactive)
GI50 (SNB-19): 26.7 µM (inactive)
GI50 (SW-620): 20.5 µM (inactive)
GI50 (T47D): 20.5 µM (inactive)
GI50 (TK-10): 20.9 µM (inactive)
GI50 (U-251): 16.5 µM (inactive)
GI50 (UACC-257): 17.9 µM (inactive)
GI50 (UACC-62): 16.6 µM (inactive)
GI50 (UO-31): 15.7 µM (inactive)

NCC(=O)NC(CO)C(=O)O (stereo not given)
GI50 (786-0): > 100 µM (inactive)
GI50 (A498): > 100 µM (inactive)
GI50 (A549): > 100 µM (inactive)
GI50 (ACHN): > 100 µM (inactive)
GI50 (BT-549): > 100 µM (inactive)
GI50 (CAKI-1): > 100 µM (inactive)
GI50 (CCRF-CEM): > 100 µM (inactive)
GI50 (COLO 205): > 100 µM (inactive)
GI50 (DU-145): > 100 µM (inactive)
GI50 (EKVX): > 100 µM (inactive)
GI50 (HCC 2998): > 100 µM (inactive)
GI50 (HCT-116): > 100 µM (inactive)
GI50 (HCT-15): > 100 µM
GI50 (HL-60): > 100 µM (inactive)
GI50 (HOP-62): > 100 µM (inactive)
GI50 (HOP-92): > 100 µM (inactive)
GI50 (HT-29): > 100 µM (inactive)
GI50 (Hs-578T): > 100 µM (inactive)
GI50 (IGROV-1): > 100 µM (inactive)
GI50 (K562): > 100 µM (inactive)
GI50 (KM12): > 100 µM (inactive)
GI50 (LOX IMVI): > 100 µM (inactive)
GI50 (M14): > 100 µM (inactive)
GI50 (MCF7): > 100 µM (inactive)
GI50 (MDA-MB-231): > 100 µM (inactive)
GI50 (MDA-MB-435): > 100 µM (inactive)
GI50 (MDA-N): > 100 µM (inactive)
GI50 (MOLT-4): > 27.5 µM (inactive)
GI50 (Malme-3M): > 100 µM (inactive)
GI50 (NCI-H226): > 100 µM (inactive)
GI50 (NCI-H23): > 100 µM (inactive)
GI50 (NCI-H460): > 100 µM (inactive)
GI50 (NCI-H522): > 100 µM (inactive)
GI50 (NCI/ADR-RES): > 100 µM (inactive)
GI50 (OVCAR-3): > 100 µM (inactive)
GI50 (OVCAR-4): > 100 µM (inactive)
GI50 (OVCAR-5): > 100 µM (inactive)
GI50 (OVCAR-8): > 100 µM (inactive)
GI50 (PC-3): > 100 µM (inactive)
GI50 (RPMI-8226): > 100 µM (inactive)
GI50 (RXF 393): > 100 µM (inactive)
GI50 (SF-268): > 100 µM (inactive)
GI50 (SF-295): > 100 µM (inactive)
GI50 (SF-539): > 100 µM (inactive)
GI50 (SK-MEL-28): > 100 µM (inactive)
GI50 (SK-MEL-2): > 100 µM (inactive)
GI50 (SK-MEL-5): > 100 µM (inactive)
GI50 (SK-OV-3): > 100 µM (inactive)
GI50 (SN12C): > 100 µM (inactive)
GI50 (SNB-19): > 100 µM (inactive)
GI50 (SNB-75): > 100 µM (inactive)
GI50 (SW-620): > 100 µM (inactive)
GI50 (T47D): > 100 µM (inactive)
GI50 (TK-10): > 100 µM (inactive)
GI50 (U-251): > 100 µM (inactive)
GI50 (UACC-257): > 100 µM (inactive)
GI50 (UACC-62): > 100 µM (inactive)
GI50 (UO-31): > 100 µM (inactive)
